Consider 1 compound from patent publication US20260306463A1, “SIK INHIBITORS TO TREAT CHRONIC KIDNEY DISEASE” (The General Hospital Corporation, priority 2023, published 2026).

Test [1] deals with renal fibrosis, adenine-induced CKD mice. Briefly: renal fibrosis in adenine CKD mice (trichrome, immunoblot, RT-qPCR). Format: in vivo, mouse. On the procedure: FIGS. 3A-3C. SK-124 treatment reduces fibrosis in adenine-induced chronic kidney disease. (A) Representative trichrome stained sections from the indicated groups. Darker staining indicates fibrosis which is increased in vehicle-treated adenine diet mice and reduced by SK-124 treatment. (B) Kidney protein lysates were isolated and analyzed by immunoblotting for alpha-smooth muscle actin (αSMA) (top) and GAPDH (bottom). (C) Whole kidney RNA from the indicated groups was analyzed by RT-qPCR for the indicated fibrosis marker.
7-week-old female CD1 mice were obtained from Charles River Laboratories (Wilmington, MA) and were fed on 0.2% adenine containing diet (TD.130900; 0.2% Adenine, 0.9% Phosphate, 0.5% Calcium; Envigo) or control diet (TD. 96348) for 6 or 8 weeks to induce chronic kidney disease (CKD). Mice were oral gavaged with 40 mg/kg SK-124, or intraperitonially injected with 80 μg/kg PTH, or treated with vehicle 5 days a week for the duration of the special diet.
cDNA was prepared using Primescript RT kit (Takara Inc), with 750 ng RNA per reaction. RT-qPCR was performed by using PerfeCa® SYBR® Green FAstMix® ROX (Quanta bio) in the StepOnePlus™ Real-time PCR System (Applied Biosystems). Hmbs was used as a control housekeeping gene for mouse samples, and B-Actin was used for organoids, relative expression was calculated (2^-deltaCT method) and compared to the mean of control group if necessary. Primers used for RT-qPCR are listed in Table 2 (mouse primers) and Table 3 (human primers).
Snap-frozen kidneys were homogenized in NP-40 lysis buffer (FNN0021, Thermo) with using TissueLyserII at 30 Hz for 5 minutes. Samples were rotated at 4 deg for 20 minutes and frozen on dry ice and thawed. After centrifuging for 30 minutes at 4 deg, the supernatants were collected. After determining the protein concentration by Bradford assay, […] of protein was loaded for western blotting. For KGli cells, the cells were washed with cold PBS then scraped into TNT buffer (Tris-NaCl-Tween buffer, 20 mM Tris-HCl pH 8, 200 mM NaCl, 0.5% Triton X-100 containing 1X-protease inhibitor cocktail (Bimake Inc. 100X, Cat. #B14001), 1 mM DTT, 1 mM NaF, 1 mM Vanadate (New England Biolabs)). Next, samples were vortexed for 1 minute and centrifuged at 14,000g for 6 minutes at 4 deg, and the supernatant was collected.
For immunoblotting, the lysates were separated by SDS-PAGE (Bio-rad precast gels), and proteins were transferred to the nitrocellulose membranes. Then, the membranes were blocked in 5% milk in tris-buffered saline plus 0.05% Tween-20 (TBST) and incubated with primary antibody in 5% BSA-TBST overnight at 4° C. Next day, after washing, membranes were incubated with anti-rabbit HRP-coupled secondary antibody (1:2500, Cell Signaling Technology, 7074S) or anti-mouse HRP-coupled secondary antibody (1:2500, Cell Signaling, 7076S), and signals were detected with SuperSignal West Femto Maximum Sensitivity Substrate (Thermo scientific) using the iBright imager (ThermoFisher). The antibodies used are: SIK2 (1:1000, Cell Signaling, 6919), GAPDH (1:1000, Cell Signaling, 2118), αSMA (1:1000, Invitrogen, 14-9760-82), pSMAD3 (1:1000, Cell Signaling, 9520), and SMAD⅔ (1:1000, Cell Signaling, 8685).
Hematoxylin and eosin (H+E) staining was performed on some sections using standard protocols and Masson's Trichome stain for fibrosis was performed according to the manufacturer's instructions (ab150686, abcam). Formalin-fixed paraffin embedded sections were also used for in situ hybridization according to the manufacturer instructions (ACDbio). Briefly, the sections were blocked with hydrogen peroxide for 10 minutes at room temperature, followed by antigen retrieval with Pepsin (R2283, Sigma-Aldrich) in humidified chamber in 40° C. HybEZ oven. The Sik1 (526411, ACD), Sik2 (526421, ACD), or Sik3 (526431, ACD) probe was added to the sections for 2 hours in the humidified chamber at 40° C. Then, the signal was amplified (322310, ACD) and detected using Brown DAB kit (322310, ACD). […]

The test system of test [2] is whole kidney transcriptome. Briefly: bulk RNA-sequencing of whole kidney, adenine CKD mice. Particulars: bulk RNA-seq. The format is in vivo, mouse. The protocol: FIGS. 6A-6F. The effects of SK-124 treatment at the transcriptomic level in adenine-induced mouse chronic kidney disease. RNA-seq was performed on whole kidney RNA samples (n=7/group) from FIG. 1. Volcano plot show gene regulated (>2-fold change, p(adj)<0.05) by CKD (versus control diet, A) or in CKD by SK-124 (versus vehicle control, B). In Volcano plot, representative fibrosis markers (Col3a1, Vim, Serpinel) and proximal tubule integrity (Lrp2. Atplai, and Hnf4a) are shown. Scatterplot (C) and heatmap (D) showing integration of individual RNA-seq comparisons. […] (E) Single cell RNA-sequencing was performed on dissociated kidneys from adenine diet fed mice treated with vehicle or SK-124 (n=4/group). […] (F) Relative cellularity of each annotated cluster is shown in pie chart format for adenine+vehicle (CKD-Veh) or adenine+SK-124 (CKD-SK-124) mice.
Isolated RNA samples from the mouse adenine diet study and human kidney organoid experiment were submitted to Novogene and bulk-RNA sequencing on NovaSeq X Plus Ilumina Novoseq Platform. Sequencing reads were mapped to the mouse reference genome (mm10/GRCm38) or human reference genome (GRCh38/hg38) using Salmon and differential gene expression analysis was performed using DESeq2.

Where [3] appears, read: adenine vs control diet, or SK-124 vs vehicle in CKD mice.

Entries after “also recorded” stand apart in the source; their conditions may differ.

`CCc1nnc(-c2c(OC)cc(-c3cnc4cc(-c5cnn(C)c5)ccn34)cc2OC)o1` [SK-124, 2-[2,6-Dimethoxy-4-[7-(1-methylpyrazol-4-yl)imidazo[1,2-a]pyridin-3-yl]phenyl]-5-ethyl-1,3,4-oxadiazole]: in test [1] (adenine diet, SK-124 40 mg/kg oral, 40 mg/kg), the “fibrosis (trichrome staining)” value is given as “reduced fibrosis”. Also, the αSMA protein result in test [1] (kidney lysates, immunoblot) was “reduced”. In test [1] (whole kidney RNA, RT-qPCR), the “Colla1 mRNA” value is given as “reduced”, the “Vimentin (Vim) mRNA” value was “reduced” and the “αSMA mRNA” value is “reduced”. For the same compound, the “patterns of dysregulated gene expression in CKD” value in test [2] (scatterplot and heat map, SK-124 vs vehicle) is “conversely regulated; also recorded: reversed”. In addition, in test [2] (setting [3]), the “injury markers (Col3a1, Vim, Serpine1)” value is “suppressed” and the “markers of intact proximal epithelial cells (Lrp2, Atpla1, Hnf4a) / epithelial cell integrity” value is “preserved expression”.
